According to publication PMC2746433 (Biochemistry, 2009):
Like-named read-outs stand apart in the source and are kept apart here. Residues, ends and D or L forms follow the SMILES beside them. No end group written: not given here. fluorescein = fluorescein (label on the N-terminus)

T1: E. coli Exonuclease I (E. coli) (UniProt P04995)
T1 sequence: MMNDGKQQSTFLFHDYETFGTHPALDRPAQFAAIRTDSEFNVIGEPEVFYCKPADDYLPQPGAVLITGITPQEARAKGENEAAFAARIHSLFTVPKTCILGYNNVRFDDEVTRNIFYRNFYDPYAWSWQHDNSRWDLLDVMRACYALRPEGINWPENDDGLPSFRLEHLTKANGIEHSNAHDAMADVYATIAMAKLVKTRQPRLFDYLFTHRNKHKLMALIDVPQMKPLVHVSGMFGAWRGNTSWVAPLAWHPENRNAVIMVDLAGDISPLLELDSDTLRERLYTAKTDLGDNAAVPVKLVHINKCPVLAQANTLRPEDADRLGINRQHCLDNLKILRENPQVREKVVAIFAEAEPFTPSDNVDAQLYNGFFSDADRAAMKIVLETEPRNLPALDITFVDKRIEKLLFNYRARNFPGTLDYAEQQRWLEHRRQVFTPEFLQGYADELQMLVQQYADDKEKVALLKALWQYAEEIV

T2: E. coli Exonuclease I (E. coli, UniProt P04995 1-475)
T2 sequence (looked up): T1 sequence


What was measured:
[1] = target: ExoI/SSB/ssDNA ternary complex (Escherichia coli, UniProt P04995); test: Exonuclease assay: inhibition of SSB-stimulated ExoI nuclease activity; format: biochemical, E. coli
[2] = target: E. coli ExoI (Escherichia coli, UniProt P04995); test: Peptide competition-binding assay
[3] = target: T1, E. coli Exonuclease I (E. coli); test: fluorescence polarisation
[4] = target: T2, E. coli Exonuclease I; test: fluorescence polarisation
[5] = target: T2, E. coli Exonuclease I
[6] = target: T2, E. coli Exonuclease I; test: fluorescence polarisation; remark: listed apart in the source

| Molecule | IC50 [1] [µM] | IC50 [2] [µM] | K_(bind) (apparent inhibitor dissociation constant) [4] [µM] | also measured |
| --- | --- | --- | --- | --- |
| CC[C@H](C)[C@H](NC(=O)[C@@H](N)Cc1c[nH]c2ccccc12)C(=O)N1CCC[C@H]1C(=O)N[C@@H](Cc1ccccc1)C(=O)O [WIPF] (H-WIPF-OH) | > 100 | 252 ± 12 | – | – |
| SSB-Ct Phe-to-Tyr variant peptide … | – | – | – | IC50 [3]: 382 µM; K (bind) (apparent inhibitor dissociation constant) [3]: 79 µM |
| SSB-Ct Pro-to-Ser variant peptide … | – | – | – | IC50 [3]: 52.9 µM; K (bind) (apparent inhibitor dissociation constant) [3]: 10.8 µM |
| WDDDIPF [WDDDIPF] | ~40 | – | – | – |
| WDDIPF [WDDIPF] | ~40 | – | – | – |
| WDFDDDIPF [WDFDDDIPF] | ~1 | – | – | – |
| WDIPF [WDIPF, Trp-Asp-Ile-Pro-Phe] | > 100 | – | – | – |
| WFDDDIPF [WFDDDIPF] | ~10 | – | – | – |
| WMAFAAAIPF [WMAFAAAIPF] | ~20 | 169 ± 15 | – | – |
| WMAFDDDIPF [WMAFDDDIPF] | ~1 | 11.6 ± 0.9 | – | – |
| WMDFADDIPF [WMDFADDIPF] | ~1 | 8.5 ± 0.3 | – | – |
| WMDFDADIPF [WMDFDADIPF] | ~1 | 6.7 ± 0.3 | – | – |
| WMDFDDAIPF [WMDFDDAIPF] | ~1 | 9.3 ± 0.3 | – | – |
| WMDFDDD [WMDFDDD] | ~40 | > 1000 | – | – |
| WMDFDDDI [WMDFDDDI] | ~40 | > 1000 | – | – |
| WMDFDDDIP [WMDFDDDIP] | ~40 | > 1000 | – | – |
| WMDFDDDIPF [WMDFDDDIPF, Trp-Met-Asp-Phe-Asp-Asp-Asp-Ile-Pro-Phe] | ~1 | – | – | – |
| WMDFDDDIPY [WMDFDDDIPY] | ~10 | 382 ± 41 | – | – |
| WMDFDDDISF [WMDFDDDISF] | ~10 | 52.9 ± 3.5 | – | – |
| WDDIPF [SSB-Ct N-terminal truncation peptide WDDIPF] | – | – | 6.8 ± 0.1 | IC50 [4]: 33.5 ± 2.6 µM |
| WMDFDDDIPF [SSB-Ct peptide WMDFDDDIPF (wild type)] | – | – | 0.9 ± 0.1 | IC50 [4]: 5.2 ± 0.2 µM |
| WDIPF [SSB-Ct N-terminal truncation peptide WDIPF] | – | – | 16.2 ± 0.6 | IC50 [4]: 79.1 ± 2.9 µM |
| WMDFDDDI [SSB-Ct C-terminal truncation peptide WMDFDDDI] | – | – | > 200 | – |
| WMDFDDD [SSB-Ct C-terminal truncation peptide WMDFDDD] | – | – | > 200 | – |
| WDFDDDIPF [SSB-Ct N-terminal truncation peptide WDFDDDIPF] | – | – | 0.7 ± 0.1 | IC50 [4]: 4.3 ± 0.1 µM |
| WIPF [SSB-Ct N-terminal truncation peptide WIPF] | – | – | – | K (bind) (apparent inhibitor dissociation constant) [3]: 52 µM |
| WFDDDIPF [SSB-Ct N-terminal truncation peptide WFDDDIPF] | – | – | 2.3 ± 0.1 | IC50 [4]: 12.1 ± 0.7 µM |
| WDDDIPF [SSB-Ct N-terminal truncation peptide WDDDIPF] | – | – | 5.1 ± 0.8 | IC50 [4]: 25.3 ± 0.9 µM |
| WMDFDDDIP [SSB-Ct C-terminal truncation peptide WMDFDDDIP] | – | – | > 200 | – |
| fluorescein-WMDFDDDIPF [F-SSB-Ct (SSB-Ct with an N-terminal fluorescein)] | – | – | – | Kd [5]: 0.178 ± 0.01 µM; Kd [6]: 0.261 ± 0.022 µM |
